ChEMBL document CHEMBL4406836, “The design of a cell-selective fowlicidin-1-derived peptide with both antimicrobial and anti-inflammatory activities” (Eur J Med Chem, 2019)
In brackets after ≈: the same amount, converted by molar mass. Activity calls are given as the source filed them. The rule behind the calls is not given here.

Assays:
Staphylococcus aureus [1] = assay: Potentiation of oxacillin-induced antibacterial activity against methicillin-resistant Staphylococcus aureus CCARM 3089 assessed as reduction in oxacillin MIC at 1/16th MIC incubated for 72 hrs by spectrophotometry; assay type: functional
Pseudomonas aeruginosa [2] = assay: Antibacterial activity against multidrug-resistant Pseudomonas aeruginosa CCARM 2095 assessed as reduction in bacterial growth incubated for 72 hrs by spectrophotometry; assay type: functional; details: CCARM 2095, 72 h
Pseudomonas aeruginosa [3] = assay: Potentiation of chloramphenicol-induced antibacterial activity against mutidrug-resistant Pseudomonas aeruginosa CCARM 2095 assessed as reduction in chloramphenicol MIC at 1/16th MIC incubated for 72 hrs by spectrophotometry; assay type: functional
Staphylococcus aureus [4] = assay: Fractional inhibitory concentration, ratio of MIC of compound in presence of oxacillin to MIC of oxacillin for antibacterial activity against methicillin-resistant Staphylococcus aureus CCARM 3089; assay type: functional
Pseudomonas aeruginosa [5] = assay: Fractional inhibitory concentration, ratio of MIC of compound in presence of […] uM ciprofloxacin to MIC of ciprofloxacin for antibacterial activity against multidrug-resistant Pseudomonas aeruginosa CCARM 2095; assay type: functional
Pseudomonas aeruginosa [6] = assay: Fractional inhibitory concentration, ratio of MIC of compound in presence of […] uM chloramphenicol to MIC of chloramphenicol for antibacterial activity against multidrug-resistant Pseudomonas aeruginosa CCARM 2095; assay type: functional
Staphylococcus aureus [7] = assay type: functional; details: CCARM 3089, 72 h
Pseudomonas aeruginosa [8] = assay: Fractional inhibitory concentration, ratio of MIC of compound in presence of ciprofloxacin to MIC of compound for antibacterial activity against multidrug-resistant Pseudomonas aeruginosa CCARM 2095; assay type: functional
Staphylococcus aureus [9] = assay: Antibacterial activity against methicillin-resistant Staphylococcus aureus CCARM 3089 assessed as reduction in bacterial growth incubated for 18 hrs by spectrophotometry based microtiter broth dilution method; assay type: functional; details: CCARM 3089, 18 h
Staphylococcus aureus [10] = assay: Fractional inhibitory concentration index, sum of ratio of MIC of compound in presence of […] uM ciprofloxacin to MIC of ciprofloxacin and ratio of MIC of compound in presence of ciprofloxacin to MIC of ciprofloxacin for antibacterial activity against methicillin-resistant Staphylococcus aureus CCARM 3089; assay type: functional
Pseudomonas aeruginosa [11] = assay: Fractional inhibitory concentration, ratio of MIC of compound in presence of chloramphenicol to MIC of compound for antibacterial activity against multidrug-resistant Pseudomonas aeruginosa CCARM 2095; assay type: functional
Pseudomonas aeruginosa [12] = assay: Antibacterial activity against multidrug-resistant Pseudomonas aeruginosa CCARM 2095 assessed as reduction in bacterial growth incubated for 18 hrs by spectrophotometry based microtiter broth dilution method; assay type: functional; details: CCARM 2095, 18 h
Pseudomonas aeruginosa [13] = assay: Potentiation of oxacillin-induced antibacterial activity against mutidrug-resistant Pseudomonas aeruginosa CCARM 2095 assessed as reduction in oxacillin MIC at 1/16th MIC incubated for 72 hrs by spectrophotometry; assay type: functional
Pseudomonas aeruginosa [14] = assay type: functional; details: CCARM 2095, 72 h
Staphylococcus aureus [15] = assay: Fractional inhibitory concentration index, sum of ratio of MIC of compound in presence of 128 uM chloramphenicol to MIC of chloramphenicol and ratio of MIC of compound in presence of chloramphenicol to MIC of chloramphenicol for antibacterial activity against methicillin-resistant Staphylococcus aureus CCARM 3089; assay type: functional
Staphylococcus aureus [16] = assay: Antibacterial activity against methicillin-resistant Staphylococcus aureus CCARM 3089 assessed as reduction in bacterial growth incubated for 72 hrs in presence of 128 uM chloramphenicol by spectrophotometry; assay type: functional; details: CCARM 3089, 72 h
Staphylococcus aureus [17] = assay: Potentiation of ciprofloxacin-induced antibacterial activity against methicillin-resistant Staphylococcus aureus CCARM 3089 assessed as reduction in ciprofloxacin MIC at 1/16th MIC incubated for 72 hrs by spectrophotometry; assay type: functional
Staphylococcus aureus [18] = assay type: functional; details: CCARM 3089, 72 h; remark: listed apart in the source
Pseudomonas aeruginosa [19] = assay type: functional; details: CCARM 2095, 72 h; remark: listed apart in the source
Pseudomonas aeruginosa [20] = assay: Fractional inhibitory concentration index, sum of ratio of MIC of compound in presence of […] uM chloramphenicol to MIC of chloramphenicol and ratio of MIC of compound in presence of chloramphenicol to MIC of compound for antibacterial activity against multidrug-resistant Pseudomonas aeruginosa CCARM 2095; assay type: functional
Staphylococcus aureus [21] = assay: Fractional inhibitory concentration, ratio of MIC of compound in presence of ciprofloxacin to MIC of ciprofloxacin for antibacterial activity against methicillin-resistant Staphylococcus aureus CCARM 3089; assay type: functional
Pseudomonas aeruginosa [22] = assay: Fractional inhibitory concentration index, sum of ratio of MIC of compound in presence of […] and ratio of MIC of compound in presence of ciprofloxacin to MIC of compound for antibacterial activity against multidrug-resistant Pseudomonas aeruginosa CCARM 2095; assay type: functional
Staphylococcus aureus [23] = assay: Induction of cytoplasmic membrane depolarization in Staphylococcus aureus at 2 times of MIC for a period of 600 sec by DiSC3-5-fluorescence based assay; assay type: functional, organism-based
Escherichia coli = assay: Induction of membrane integrity disruption in Escherichia coli at 2 times of MIC by propidium iodide staining based flow cytometry relative to control (reference value: 2.97 %); assay type: functional
Pseudomonas aeruginosa [24] = assay: Fractional inhibitory concentration, ratio of MIC of compound in presence of oxacillin to MIC of compound for antibacterial activity against multidrug-resistant Pseudomonas aeruginosa CCARM 2095; assay type: functional
Staphylococcus aureus [25] = assay: Potentiation of chloramphenicol-induced antibacterial activity against methicillin-resistant Staphylococcus aureus CCARM 3089 assessed as reduction in chloramphenicol MIC at 1/16th MIC incubated for 72 hrs by spectrophotometry; assay type: functional
Staphylococcus aureus [26] = assay: Antibacterial activity against methicillin-resistant Staphylococcus aureus CCARM 3089 assessed as reduction in bacterial growth incubated for 72 hrs by spectrophotometry; assay type: functional; details: CCARM 3089, 72 h
Staphylococcus aureus [27] = assay: Fractional inhibitory concentration, ratio of MIC of compound in presence of chloramphenicol to MIC of chloramphenicol for antibacterial activity against methicillin-resistant Staphylococcus aureus CCARM 3089; assay type: functional
Pseudomonas aeruginosa [28] = assay: Potentiation of ciprofloxacin-induced antibacterial activity against mutidrug-resistant Pseudomonas aeruginosa CCARM 2095 assessed as reduction in ciprofloxacin MIC at 1/16th MIC incubated for 72 hrs by spectrophotometry; assay type: functional
Enterococcus faecium = assay: Antibacterial activity against vancomycin-resistant Enterococcus faecium ATCC 51559 assessed as reduction in bacterial growth incubated for 18 hrs by spectrophotometry based microtiter broth dilution method; assay type: functional; details: ATCC 51559, 18 h
Pseudomonas aeruginosa [29] = assay: Fractional inhibitory concentration, ratio of MIC of compound in presence of […] uM oxacillin to MIC of oxacillin for antibacterial activity against multidrug-resistant Pseudomonas aeruginosa CCARM 2095; assay type: functional
Pseudomonas aeruginosa [30] = assay type: functional; details: CCARM 2095, 72 h; remark: listed apart in the source
Staphylococcus aureus [31] = assay: Fractional inhibitory concentration index, sum of ratio of MIC of compound in presence of […] uM oxacillin to MIC of oxacillin and ratio of MIC of compound in presence of oxacillin […] antibacterial activity against methicillin-resistant Staphylococcus aureus CCARM 3089; assay type: functional
Pseudomonas aeruginosa [32] = assay: Antibacterial activity against multidrug-resistant Pseudomonas aeruginosa CCARM 2109 assessed as reduction in bacterial growth incubated for 18 hrs by spectrophotometry based microtiter broth dilution method; assay type: functional; details: CCARM 2109, 18 h
Staphylococcus aureus [33] = assay: Antibacterial activity against methicillin-resistant Staphylococcus aureus CCARM 3090 assessed as reduction in bacterial growth incubated for 18 hrs by spectrophotometry based microtiter broth dilution method; assay type: functional; details: CCARM 3090, 18 h

Compound	fold change (FC) (Staphylococcus aureus [1])	MIC (Pseudomonas aeruginosa [2])	fold change (FC) (Pseudomonas aeruginosa [3])	FIC (Staphylococcus aureus [4])	FIC (Pseudomonas aeruginosa [5])	FIC (Pseudomonas aeruginosa [6])	MIC (Staphylococcus aureus [7])	FIC (Pseudomonas aeruginosa [8])	MIC (Staphylococcus aureus [9])	fractional inhibitory concentration index (FICI) (Staphylococcus aureus [10])	FIC (Pseudomonas aeruginosa [11])	MIC (Pseudomonas aeruginosa [12])	fold change (FC) (Pseudomonas aeruginosa [13])	MIC (Pseudomonas aeruginosa [14])	fractional inhibitory concentration index (FICI) (Staphylococcus aureus [15])	MIC (Staphylococcus aureus [16])	fold change (FC) (Staphylococcus aureus [17])	MIC (Staphylococcus aureus [18])	MIC (Pseudomonas aeruginosa [19])	fractional inhibitory concentration index (FICI) (Pseudomonas aeruginosa [20])	further results
H-LVIRWVRAGYKLYRAIKKK-NH2	4 - 32	2 µM	4 - 16	0.25	0.125	0.031	128 µM	0.5	4 µM	0.375	0.25	2 µM	4 - 16	64 µM	0.25	16 µM	4 - 32	256 µM	32 µM	0.281	FIC (Staphylococcus aureus [21]): 0.125; fractional inhibitory concentration index (FICI) (Pseudomonas aeruginosa [22]): 0.625; Activity (Staphylococcus aureus [23]): Active; Activity (Escherichia coli): 68.98%; FIC (Pseudomonas aeruginosa [24]): 0.25; fold change (FC) (Staphylococcus aureus [25]): 4 - 32; MIC (Staphylococcus aureus [26]): 4 µM; FIC (Staphylococcus aureus [27]): 0.125; fold change (FC) (Pseudomonas aeruginosa [28]): 4 - 16; MIC (Enterococcus faecium): 4 µM; FIC (Pseudomonas aeruginosa [29]): 0.25; MIC (Pseudomonas aeruginosa [30]): 128 µM; fractional inhibitory concentration index (FICI) (Staphylococcus aureus [31]): 0.5; MIC (Pseudomonas aeruginosa [32]): 4 µM; MIC (Staphylococcus aureus [33]): 2 µM
CC[C@H](C)[C@H](NC(=O)[C@H](CCCCN)NC(=O)[C@H](CCC(=O)O)NC(=O)[C@H](CCCCN)NC(=O)[C@H](CO)NC(=O)[C@H](CCCCN)NC(=O)[C@H](CCCNC(=N)N)NC(=O)[C@H](Cc1ccccc1)NC(=O)[C@H](Cc1ccccc1)NC(=O)[C@H](CC(=O)O)NC(=O)CNC(=O)[C@H](CC(C)C)NC(=O)[C@@H](N)CC(C)C)C(=O)NCC(=O)N[C@@H](CCCCN)C(=O)N[C@@H](CCC(=O)O)C(=O)N[C@@H](Cc1ccccc1)C(=O)N[C@@H](CCCCN)C(=O)N[C@@H](CCCNC(=N)N)C(=O)N[C@H](C(=O)N[C@H](C(=O)N[C@@H](CCC(N)=O)C(=O)N[C@@H](CCCNC(=N)N)C(=O)N[C@H](C(=O)N[C@@H](CCCCN)C(=O)N[C@@H](CC(=O)O)C(=O)N[C@@H](Cc1ccccc1)C(=O)N[C@@H](CC(C)C)C(=O)N[C@@H](CCCNC(=N)N)C(=O)N[C@@H](CC(N)=O)C(=O)N[C@@H](CC(C)C)C(=O)N[C@H](C(=O)N1CCC[C@H]1C(=O)N[C@@H](CCCNC(=N)N)C(=O)N[C@H](C(=O)N[C@@H](CCC(=O)O)C(=O)N[C@@H](CO)C(=O)O)[C@@H](C)O)C(C)C)[C@@H](C)CC)C(C)C)[C@@H](C)CC [CATHELICIDIN]	2 - 16	4 µM (≈ 18 µg/mL)	2 - 4	0.25	0.25	0.25	256 µM (≈ 1150 µg/mL)	0.5	8 µM (≈ 35.9 µg/mL)	1.25	0.5	4 µM (≈ 18 µg/mL)	2 - 4	128 µM (≈ 575 µg/mL)	1	64 µM	2 - 16	256 µM (≈ 1150 µg/mL)	256 µM (≈ 1150 µg/mL)	0.75	FIC (Staphylococcus aureus [21]): 1; fractional inhibitory concentration index (FICI) (Pseudomonas aeruginosa [22]): 0.75; Activity (Staphylococcus aureus [23]): Active; Activity (Escherichia coli): 55.5%; FIC (Pseudomonas aeruginosa [24]): 1; fold change (FC) (Staphylococcus aureus [25]): 2 - 16; MIC (Staphylococcus aureus [26]): 8 µM (≈ 35.9 µg/mL); FIC (Staphylococcus aureus [27]): 0.5; fold change (FC) (Pseudomonas aeruginosa [28]): 2 - 4; MIC (Enterococcus faecium): 8 µM (≈ 35.9 µg/mL); FIC (Pseudomonas aeruginosa [29]): 1; MIC (Pseudomonas aeruginosa [30]): 512 µM (≈ 2300 µg/mL); fractional inhibitory concentration index (FICI) (Staphylococcus aureus [31]): 0.75; MIC (Pseudomonas aeruginosa [32]): 8 µM (≈ 35.9 µg/mL); MIC (Staphylococcus aureus [33]): 4 µM (≈ 18 µg/mL)
